According to patent US6506745B1, “Medicinal compositions for treatment of atrial fibrillation” (Noboru Kaneko, priority 1998, dated 2003):

Assays:
[1] = system: atrial fibrillation induced by means of electrical stimulation; experiment: Atrial fibrillation induced by electrical stimulation in chronically paced right atrium; format: in vivo, hybrid of a labrador and beagle
Text: In the experimental test, a hybrid of a labrador and beagle was used. An electrode for electrical excitation was embedded in the right atrium. From a week after the operation, the right atrium was subjected to a continuous pacing at an excitation frequency of 400 or 600 bpm by an external pacemaker. Further, for 31 day, the right atrium was subjected to a pacing giving a burst excitation (10 mA,50 Hz,1 sec) 5 days a week and several hours a day. Compound 1 was continuously injected into forearm vein (0.3mg/kg/min×2 min+0.03 mg/kg/min). At 20 minutes before and after administrating, the excitation current (50 Hz, 1 sec) was increased from 3 mA to 10 mA in increments of 0.5 mA to determine each atrial fibrillation threshold (AFT). Then, the atrial fibrillation duration (AF duration) and the interval (FF interval) of atrial fibrillation waves, which were generated by the excitation current of 10 mA, were measured. In FIG. 1, the mean value of the AF duration before administration was 35.1±9.0 sec, and the mean value after administration was 12.1±1.9 sec. In FIG. 2, the mean value of the FF interval before administration was 51.3±1.7 msec, and the mean value after administration was 61.7±1.8 msec.

right atrial muscle = experiment: Active potential duration (APD90) of isolated right atrial muscle under electrical stimulation; format: cell-based, beagle; conditions: 90 minutes after adding
Method: A beagle was used in the experimental test. Its right atrial. muscle was surgically extracted, and a sample was fixed with pins within an experimental vessel which is perfused with Tyrode liquid (10 ml/min). Using an electrical stimulator, the atrial muscle was stimulated by a voltage two times greater than that of generating an active potential, and rectangular waves having pulse. width of 2 msec in a frequency of 2 Hz, and the generated active potential was measured by a glass microelectrode inserted into the cells. Compound 1 was added into the experimental vessel with condensations of 0.3 μM and 1 μM. At 90 minutes before and after adding the compound, the sample was excited with various excitation frequencies, and each active potential was recorded to. determine the duration (90% recovery time; APD90).

In the case of `COc1ccc2c(c1)CN(C(=O)CCN1CCC(Cc3ccccc3)CC1)CCS2` [Compound 1, 4-[3-(4-benzylpiperidine-1-yl)propionyl]-7-methoxy-2,3,4,5-tetrahydro-1,4-benzothiazepine], the “atrial fibrillation duration (AF duration), mean value after administration” value ([1]; i.v. 0.3 mg/kg/min x 2 min + 0.03 mg/kg/min, 20 minutes after administrating, excitation current 10 mA, before administration 35.1±9.0 sec) is reported as 12.1 ± 1.9 s, the “interval of atrial fibrillation waves (FF interval), mean value after administration” value ([1]; i.v. 0.3 mg/kg/min x 2 min + 0.03 mg/kg/min, 20 minutes after administrating, excitation current 10 mA, before administration 51.3±1.7 msec) is reported as 61.7 ± 1.8 ms and the “atrial fibrillation threshold (AFT) after administration” value ([1]; i.v. 0.3 mg/kg/min x 2 min + 0.03 mg/kg/min, 20 minutes after administrating, increased from 7 mA before) is reported as 10 mA. The “extension of FF interval after administration” value ([1]; i.v. infusion, excitation current 10 mA, FIG. 2) was “about 20%”, the “duration (APD90) change after addition” value (right atrial muscle; 0.3 μM, excitation frequency 0.67 Hz) was 106.0 ± 2.01% and the “duration (APD90) change after addition” value (right atrial muscle; 0.3 μM, excitation frequency 1 Hz) was 110.1 ± 2.75%. The “duration (APD90) change after addition” value (right atrial muscle; 0.3 μM, excitation frequency 2 Hz) was 113.0 ± 1.48%, the “duration (APD90) change after addition” value (right atrial muscle; 0.3 μM, excitation frequency 3.33 Hz) was 111.5 ± 10.52% and the “duration (APD90) change after addition” value (right atrial muscle; 1 μM, excitation frequency 0.67 Hz) was 112.9 ± 6.47%. The “duration (APD90) change after addition” value (right atrial muscle; 1 μM, excitation frequency 1 Hz) was 111.3 ± 5.34%, the “duration (APD90) change after addition” value (right atrial muscle; 1 μM, excitation frequency 2 Hz) was 118.1 ± 2.88% and the “duration (APD90) change after addition” value (right atrial muscle; 1 μM, excitation frequency 3.33 Hz) was 124.7 ± 9.40%.
